Data set [1] concerns Staphylococcus aureus 745524. Description: Antibacterial activity, broth dilution MIC. It is filed as cell-based. The note with it: Staphylococcus aureus 745524; triplicate; read-out: MIC values, SA2. The method, then: (§1) The antibacterial activities of compounds 1–13 were assessed using twofold serial dilutions of antibacterial agents in MH broth, according to previously reported standard methods provided by Clinical and Laboratory Standards Institute (CLSI)[30]. These compounds were tested for their antibacterial activities against Bacillus subtilis BS01, Staphyloccocus aureus ATCC 29213, Staphyloccocus aureus 745524, Bacillus thuringiensis BT01, and Enterococcus faecalis ATCC 29212 using a broth dilution method.
For orientation: In broth dilution the organism is exposed to a series of concentrations in liquid medium.

The test system of another data set is E. faecalis ATCC 29212. Description: Antibacterial activity, broth dilution MIC. The class given is cell-based. Particulars: Enterococcus faecalis, ATCC29212; E. faecalis ATCC 29212; triplicate; read-out: MIC values, EF. On the procedure:
as §1

In a further data set the test system is B. subtilis BS01. Description: Antibacterial activity, broth dilution MIC. Particulars: Bacillus subtilis; B. subtilis BS01; triplicate; read-out: MIC values, BS. The class given is cell-based. On the procedure:
as §1

Data set [2] deals with Staphylococcus aureus ATCC 29213. As to the kind of experiment: Antibacterial activity, broth dilution MIC. The note with it: ATCC29213; Staphylococcus aureus ATCC 29213; triplicate; read-out: MIC values, SA1. It is filed as cell-based. On the procedure: as §1
The subject of a further data set is B. thuringiensis BT01. Description: Antibacterial activity, broth dilution MIC. The class given is cell-based. The note with it: Bacillus thuringiensis. The method, then:
as §1

In another data set the test system is MDA-MB-468 cells. Particulars: cited from earlier work.
The test system of data set [3] is HepG2 human hepatocellular carcinoma cell line. As to the kind of experiment: Cytotoxic activity, MTT method. It is filed as cell-based. Particulars: HepG2, read-out: Cytotoxic activities IC50, HepG2. The text has this:
(§2) All data were obtained in triplicate and are presented as means.

Data set [4] has as its system MDA-MB-468 human triple negative breast adenocarcinoma cell line. As to the kind of experiment: Cytotoxic activity, MTT method. The note with it: MDA-MB-468, read-out: Cytotoxic activities IC50, MDA-MB-468. The class given is cell-based.
From the text: as §2
On the technique in general: Formazan colour is commonly taken as a measure of viable cells.

In data set [5] the test system is HeLa human cervical carcinoma cell line. As to the kind of experiment: Cytotoxic activity, MTT method. The class given is cell-based. Particulars: read-out: Cytotoxic activities IC50, HeLa.
From the text: as §2

Data set [6] deals with RKO human colorectal carcinoma cell line. Description: Cytotoxic activity, MTT method. The note with it: read-out: Cytotoxic activities IC50, RKO. The class given is cell-based.
From the text: as §2

Data set [7] deals with A549 human lung cancer cell line. Description: Cytotoxic activity, MTT method. It is filed as cell-based. The note with it: A549, read-out: Cytotoxic activities IC50, A549.
From the text: as §2

Data set [8] relates to MCF-7 human breast adenocarcinoma cell line. As to the kind of experiment: Cytotoxic activity, MTT method. The class given is cell-based. The note with it: MCF7, read-out: Cytotoxic activities IC50, MCF-7.
From the text: as §2

The test system of data set [9] is MDA-MB-231 human triple negative breast adenocarcinoma cell line. Description: Cytotoxic activity, MTT method. The class given is cell-based. The note with it: MDA-MB-231, read-out: Cytotoxic activities IC50, MDA-MB-231.
From the text: as §2

Data set [10] can be described thus: Cytotoxic activity, MTT method. It is filed as cell-based. Particulars: human.
From the text: as §2

Data set [11] has as its system Streptomyces sp. SCSIO 1666 WT. Description: Growth inhibition zone assay. The class given is cell-based. Particulars: WT strain, Fig. 3. An excerpt:
(§3) We also noted that the ∆cytA mutant strain accumulated small amounts (80~100-fold lower than WT producer) of the immediate biosynthetic precursors of cosmomycins A (3) and B (4). The in vitro antimicrobial activities of compounds 1–13 against a panel of gram-positive bacteria (Table 2) provided some insight into the possible physiological significance of CytA-catalyzed reductions. Furthermore, we had observed that the ΔcytA mutant strain is clearly impaired relative to the WT strain upon addition of 6 or 7 as potential substrates. To evaluate this effect, we probed the sensitivity of Streptomyces sp. SCSIO 1666 to 6 and 7 in an inhibition zone assay (Fig. 3). A clear inhibition zone (16 mm) using the ΔcytA mutant plate was observed when supplemented with 1 μg of 6 or 7. […] That CytA production endows cosmomycin resistance provides strong evidence that the cytA gene directly confers Streptomyces. sp. SCSIO 1666 with the ability to protect itself from the effects by self-resistance to cosmomycins C and D.
(§4) Fig. 3 Sensitivity of Streptomyces sp. SCSIO 1666 toward cosmomycin C (6) and cosmomycin D (7) (1 μg) as determined by growth inhibition zone assays. […] TEXT PRINTED IN THE PICTURE: 6: ΔcytA mutant strain: 16 mm DOUBTS OF THE COPYIST ABOUT THIS PICTURE: 6, ΔcytA mutant strain: the small yellow print reads 16 mm, but it could be 15 or 18 mm / 6: the yellow double arrow marked 16 mm spans the zone around disc 6. The picture prints no measure name, so it may be the inhibition zone diameter or only a scale mark

Data set [12] concerns Streptomyces sp. SCSIO 1666 ΔcytA mutant strain. Description: Growth inhibition zone assay. It is filed as cell-based. Particulars: ∆cytA mutant strain, Fig. 3.
From the text: as §3, §4

The subject of data set [13] is five gram-positive bacteria. As to the kind of experiment: Antibacterial activities, set of five gram-positive bacteria. The class given is cell-based. Particulars: set of five gram-positive bacteria (Table 2). On the procedure: as §1
The next data set has as its system CytA. As to the kind of experiment: Enzyme kinetics of CytA (formation of deglycosylation products, anaerobic). The class given is biochemical, Streptomyces sp. SCSIO 1666. The note with it: substrate of CytA; 0.5 μM CytA, 20 μM NADH, anaerobic. The method, then:
Enzymatic reactions were carried out under anaerobic conditions in an anaerobic workstation (Don Whitley Scientific A45) containing a gas phase of N2/H2/CO2 (80:10: 10%, by vol.). ^1H, ^13C, and 2D (COSY, HMQC, HMBC and NOESY) NMR spectra were recorded at 25 °C with an Avance 700 MHz spectrometer instruments (Bruker). High-resolution mass spectra were obtained with a Maxis quadrupole-time-of-flight mass spectrometer (Bruker).
To validate the in vitro biochemical activities of CytA, we overexpressed and purified this enzyme as a soluble N-terminally His6-tagged protein from E. coli (Fig. 2a). Tris-Cl buffer was made O2 free by boiling, followed by cooling under N2 flow; NADH stock solution (dissolved in Tris-Cl), substrate stock solution (dissolved in DMSO), and enzyme solution (dissolved in Tris-Cl supplemented with 10% glycerin) were subjected to O2 eliminating process in the anaerobic workstations for at least two cycles (40 min for one cycle). CytA enzymatic activity was tested in 50 μL volume containing 50 mM Tris-Cl (pH 8.0), 25 μM substrate, 0.5 μM CytA, and 20 μM NADH, at 37 °C for 30 min. The reaction was quenched with the addition to 2 volumes MeOH. After centrifugation to remove protein, supernatants were analyzed with Agilent HPLC equipment using a Phenomenex Prodigy ODS column S5 (150 × 4.60 mm, 5 μ) and UV detection at 254 and 500 nm. Samples were eluted with a gradient elution of phase A containing 0.1% TFA in ddH2O and phase B containing 100% acetonitrile, at a flow rate of 1 mL/min.
Kinetic analyses of CytA with putative substrates 6–10, daunorubicin, doxorubicin, idarubicin, epirubicin and pirarubicin, involved a reaction volume of 20 μL consisting of 50 mM Tris-Cl (pH 8.0), 0.5 μM CytA, 20 μM NADH, […]
All assays were performed in triplicate and Km and Vmax values were calculated on the basis of curve fitting to the Michaelis-Menten equation: v = Vmax *[S]/(Km + [S]) (Supplementary Fig. 7).
For kinetics of CytA, Origin 9.0 (OriginLab Co.) was used to analyze on the basis of curve fitting to the Michaelis-Menten equation. Experiments were performed in triplicate independently. For antibacterial activity, experiments were performed in triplicate using 96-well plates.

[14] abbreviates: Huvec-12 normal cell line, read-out: Cytotoxic activities IC50, Huvec-12.
Setting [15] is: L02 normal cell line, read-out: Cytotoxic activities IC50, L02.

Converted amounts (≈) assume the structure as drawn. Where two headings read alike, the source gives them in different places.

A word on the MIC: it is the lowest concentration that inhibits growth of the organism. The IC50 is the concentration that gives 50% inhibition. Consider `CC[C@@]1(O)CCc2c(O)c3c(c(O)c2[C@H]1O[C@H]1C[C@H](N(C)C)[C@H](O[C@H]2C[C@H](O)[C@H](O[C@H]4CC[C@H](O)[C@H](C)O4)[C@H](C)O2)[C@H](C)O1)C(=O)c1cccc(O)c1C3=O` [Compound 4, cosmomycin B], for which the MIC in [1] amounted to 0.125 µg/mL (≈ 0.162 µM); in the data set on E. faecalis ATCC 29212 it was 0.03 µg/mL (≈ 0.0389 µM); in the data set with B. subtilis BS01 it was 0.25 µg/mL (≈ 0.324 µM); in data set [2] it was 0.25 µg/mL (≈ 0.324 µM); in the data set on B. thuringiensis BT01 (B. thuringiensis BT01, triplicate, read-out: MIC values, BT) it was 0.25 µg/mL (≈ 0.324 µM). For the same compound, the “cytotoxic activity against MDA-MB-468 cells” value with MDA-MB-468 cells was “devoid of activity”. Besides, the IC50 was determined as 38 nM in [3]; 710 nM in [4]; 17 nM in [5]; 89 nM in data set [6]; 21 nM in data set [7]; 650 nM in [8]. In addition, the values for the IC50 in data set [9], in [10] (setting [14]) and in data set [10] (setting [15]) were 850 nM, 410 nM and 320 nM, respectively.
For orientation: Km means the substrate concentration at which the rate is half of its maximum. As usually defined, the kcat is the number of substrate molecules converted per active site and unit of time at saturation. In the case of `CC[C@@]1(O)C[C@H](O)c2c(O)c3c(c(O)c2[C@H]1C(=O)OC)C(=O)c1cccc(O)c1C3=O` [Compound 10, ε-rhodomycinone], the MIC in data set [1] was more than 32 µg/mL; with E. faecalis ATCC 29212, more than 32 µg/mL; in the data set on B. subtilis BS01 it was more than 32 µg/mL; in data set [2], more than 32 µg/mL; in the data set with B. thuringiensis BT01 (BT01, read-out: MIC values, BT), more than 32 µg/mL; in [13], more than 32 µg/mL. Also, the “activity in growth inhibition zone assay” value in data set [11] and in data set [12] was “inactive” each time. The IC50 was found to be 17200 nM in data set [3]; 7430 nM in data set [4]; 20200 nM in data set [5]; 18500 nM in data set [6]; 33200 nM in data set [7]; 37300 nM in [8]. In addition, the IC50 in data set [9] was more than 50000 nM; in data set [10] (setting [14]), 15300 nM; in [10] (setting [15]), 11800 nM. Besides, the Km in the data set with CytA was found to be 31.2 µM. In the data set on CytA, the kcat stood at 0.00233 s⁻¹.

These data come from article PMC6897945, “CytA, a reductase in the cytorhodin biosynthesis pathway, inactivates anthracycline drugs in Streptomyces” (Communications Biology, 2019).
